In ChEMBL document CHEMBL3393026, “A selective small molecule NOP (ORL-1 receptor) partial agonist for the treatment of anxiety” (Bioorg Med Chem Lett, 2015):

Columns and labels:
Rattus norvegicus [1] = assay: Anxiolytic activity in Long-Evans hooded rat assessed as open arm time at 0.03 mg/kg, ip by elevated plus maze test; assay type: functional; conditions: route intraperitoneal
Rattus norvegicus [2] = assay: Anxiolytic activity in Long-Evans hooded rat assessed as open arm time at 0.1 mg/kg, ip by elevated plus maze test; assay type: functional; conditions: route intraperitoneal
Rattus norvegicus [3] = assay: Anxiolytic activity in Long-Evans hooded rat assessed as open arm time at 0.3 mg/kg, ip by elevated plus maze test; assay type: functional; conditions: route intraperitoneal
Rattus norvegicus [4] = assay: Anxiolytic activity in Long-Evans hooded rat assessed as open arm time at 1 mg/kg, ip by elevated plus maze test; assay type: functional; conditions: route intraperitoneal
Rattus norvegicus [5] = assay: Anxiolytic activity in Long-Evans hooded rat assessed as open arm time at 3 mg/kg, ip by elevated plus maze test; assay type: functional; conditions: route intraperitoneal
Rattus norvegicus [6] = assay: Sedative activity in Long-Evans hooded rat assessed as vertical movements at 0.03 mg/kg, ip by spontaneous locomotor activity test; assay type: organism-based; design: dose 0.03 mg/kg, route intraperitoneal; conditions: in vivo
Rattus norvegicus [7] = assay: Sedative activity in Long-Evans hooded rat assessed as vertical movements at 0.1 mg/kg, ip by spontaneous locomotor activity test; assay type: organism-based; design: dose 0.1 mg/kg, route intraperitoneal; conditions: in vivo
Rattus norvegicus [8] = assay: Sedative activity in Long-Evans hooded rat assessed as vertical movements at 0.3 mg/kg, ip by spontaneous locomotor activity test; assay type: organism-based; design: dose 0.3 mg/kg, route intraperitoneal; conditions: in vivo
Rattus norvegicus [9] = assay: Sedative activity in Long-Evans hooded rat assessed as vertical movements at 1 mg/kg, ip by spontaneous locomotor activity test; assay type: organism-based; design: dose 1 mg/kg, route intraperitoneal; conditions: in vivo
Rattus norvegicus [10] = assay: Sedative activity in Long-Evans hooded rat assessed as vertical movements at 3 mg/kg, ip by spontaneous locomotor activity test; assay type: organism-based; design: dose 3 mg/kg, route intraperitoneal; conditions: in vivo
Rattus norvegicus [11] = assay: Sedative activity in Long-Evans hooded rat assessed as vertical movements at 10 mg/kg, ip by spontaneous locomotor activity test; assay type: organism-based; design: dose 10 mg/kg, route intraperitoneal; conditions: in vivo
Rattus norvegicus [12] = assay: Anxiolytic activity in Long-Evans hooded rat assessed as open arm time at 0.5 mg/kg, ip by elevated plus maze test; assay type: functional; conditions: route intraperitoneal
Rattus norvegicus [13] = assay: Sedative activity in Long-Evans hooded rat assessed as vertical movements at 0.5 mg/kg, ip by spontaneous locomotor activity test; assay type: organism-based; design: dose 0.5 mg/kg, route intraperitoneal; conditions: in vivo

| SMILES | Activity (Rattus norvegicus [1]) | Activity (Rattus norvegicus [2]) | Activity (Rattus norvegicus [3]) | Activity (Rattus norvegicus [4]) | Activity (Rattus norvegicus [5]) | Activity (Rattus norvegicus [6]) | Activity (Rattus norvegicus [7]) | Activity (Rattus norvegicus [8]) | Activity (Rattus norvegicus [9]) | Activity (Rattus norvegicus [10]) | Activity (Rattus norvegicus [11]) | Activity (Rattus norvegicus [12]) | Activity (Rattus norvegicus [13]) |
| --- | --- | --- | --- | --- | --- | --- | --- | --- | --- | --- | --- | --- | --- |
| CCCCN(Cc1ccccc1)C[C@H](O)CN1CN(c2ccc(F)cc2)C2(CCN(CC3CCCCCCC3)CC2)C1=O | 5.9% | 72.5% | 54.4% | 57.8% | 24% | -0.4% | 11.4% | 16% | 7.6% | 2.2% | -6.2% |  |  |
| O=C1Nc2ccc(Cl)cc2C(c2ccccc2Cl)=NC1O (stereo not drawn) [LORAZEPAM] |  |  |  |  |  |  |  |  |  |  |  | 222.4% | -72% |
